Assay results published in patent publication US7772241B2, “Variolin derivatives and their use as antitumor agents” (Pharma Mar S.A., priority 2001, dated 2010).
Like-named read-outs stand apart in the source and are kept apart here.

Experiments:
[1] = Inhibition of cells growth by colorimetric (SRB) assay, HMEC1; details: human, HMEC1 cells, LC50 H-MEC-1, SRB assay, 48 hours exposure
From the text: (§1) The finality of these assays is to interrupt the growth of a “in vitro” tumor cell culture by means a continued exhibition of the cells to the sample to be testing.
(§2) This form of the assay employs 96 well cell culture microplates of 9 mm diameter (Faircloth, 1988; Mosmann, 1983). Most of the cell lines are obtained from American Type Culture Collection (ATCC) derived from different human cancer types.
(§3) Cells are maintained in RPMI 1640 10% FBS, supplemented with 0.1 g/l penicillin and 0.1 g/l streptomycin sulphate and then incubated at 37° C., 5% CO2 and 98% humidity. For the experiments, cells were harvested from subconfluent cultures using trypsin and resuspended in fresh medium before plating.
(§4) Cells are seeded in 96 well microtiter plates, at 5×10^3 cells per well in aliquots of 195 μl medium, and they are allowed to attach to the plate surface by growing in drug free medium for 18 hours. Afterward, samples are added in aliquots of 5 μl in a ranging from 10 to 10^−8 μg/ml, dissolved in DMSO/EtOH/PBS (0.5:0.5:99). After 48 hours exposure, the antitumor effect are measured by the SRB methodology: cells are fixed by adding 50 μl of cold 50% (wt/vol) trichloroacetic acid (TCA) and incubating for 60 minutes at 4° C. Plates are washed with deionized water and dried. One hundred μl of SRB solution (0.4% wt/vol in 1% acetic acid) is added to each microtiter well and incubated for 10 minutes at room temperature. Unbound SRB is removed by washing with 1% acetic acid. Plates are air dried and bound stain is solubilized with Tris buffer. Optical densities are read on a automated spectrophotometric plate reader at a single wavelength of 490 nm.
(§5) The values for mean +/−SD of data from triplicate wells are calculated. Some parameters for cellular responses can be calculated: GI=growth inhibition, TGI=total growth inhibition (cytostatic effect) and LC=cell killing (cytotoxic effect).

[2] = tested on: HMEC1; assay: as above; details: for TGI H-MEC-1: in M (unit assumed); for CC50: read-out: LC50 H-MEC-1
From the text: as §1, §2, §3, §4, §5

[3] = tested on: HT-29; assay: Inhibition of cells growth by colorimetric (SRB) assay, HT-29
How it was run: (§6)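 Human tumour cells in RPMI 1640 with 10% FBS were seeded at 5×10^3 cells/well, allowed to attach for 18 h, then exposed to samples at 10 to 10^−8 μg/ml for 48 h. Growth was measured by SRB staining after TCA fixation, with absorbance read at 490 nm in triplicate wells.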

[4] = tested on: A-549; assay: Inhibition of cells growth by colorimetric (SRB) assay, A-549
How it was run: as §6

[5] = tested on: IGROV-1; assay: Inhibition of cells growth by colorimetric (SRB) assay, IGROV-1; details: SRB assay, 48 hours exposure; for GI50: read-out: GI50 IGROV
How it was run: as §6

[6] = tested on: LoVo; assay: Inhibition of cells growth by colorimetric (SRB) assay, LoVo; details: SRB assay, 48 hours exposure; for GI50: read-out: GI50 LOVO; for CC50: read-out: LC50 LOVO
How it was run: as §6

[7] = tested on: K-562; assay: Inhibition of cells growth by colorimetric (SRB) assay, K-562; details: SRB assay, 48 hours exposure; for GI50: read-out: GI50 K-562; for CC50: read-out: LC50 K-562
How it was run: as §6

[8] = tested on: SK-OV-3; assay: Inhibition of cells growth by colorimetric (SRB) assay, SK-OV-3; details: for CC50: read-out: LC50 SKOV-3
How it was run: as §6

[9] = tested on: SK-MEL-28; assay: Inhibition of cells growth by colorimetric (SRB) assay, SK-MEL-28; details: SRB assay, 48 hours exposure; for GI50: read-out: GI50 MEL-28; for CC50: read-out: LC50 MEL-28
How it was run: as §6

[10] = tested on: SK-BR-3; assay: Inhibition of cells growth by colorimetric (SRB) assay, SK-BR-3; details: SRB assay, 48 hours exposure; for GI50: read-out: GI50 SK-BR-3; for CC50: read-out: LC50 SK-BR-3
How it was run: as §6

[11] = tested on: PANC-1; assay: Inhibition of cells growth by colorimetric (SRB) assay, PANC-1; details: SRB assay, 48 hours exposure; for GI50: read-out: GI50 PANC-1
How it was run: as §6

[12] = tested on: IGROV-ET; assay: Inhibition of cells growth by colorimetric (SRB) assay, IGROV-ET; details: SRB assay, 48 hours exposure; for GI50: read-out: GI50 IGROV-ET; for CC50: read-out: LC50 IGROV-ET
How it was run: as §6

[13] = tested on: LoVo-Dox; assay: Inhibition of cells growth by colorimetric (SRB) assay, LoVo-Dox; details: SRB assay, 48 hours exposure; for GI50: read-out: GI50 LOVO-DOX
How it was run: as §6

[14] = tested on: DU-145; assay: Inhibition of cells growth by colorimetric (SRB) assay, DU-145; details: SRB assay, 48 hours exposure; for GI50: read-out: GI50 DU-145; for CC50: read-out: LC50 DU-145
How it was run: as §6

[15] = tested on: LNCaP; assay: Inhibition of cells growth by colorimetric (SRB) assay, LNCaP; details: for GI50: read-out: GI50 LN-caP
How it was run: as §6

[16] = Homo sapiens, HMEC-1, 48 h, read-out: GI50 H-MEC-1, SRB assay, 48 hours exposure
[17] = Homo sapiens, HT-29, 48 h, read-out: GI50 HT-29, SRB assay, 48 hours exposure
[18] = Homo sapiens, HT-29, 48 h, read-out: LC50 HT-29, SRB assay, 48 hours exposure
[19] = Homo sapiens, A549, 48 h, read-out: GI50 A-549, SRB assay, 48 hours exposure
[20] = Homo sapiens, A549, 48 h, read-out: LC50 A-549, SRB assay, 48 hours exposure
[21] = read-out: GI50 H-MEC-1, SRB assay, 48 hours exposure
[22] = read-out: GI50 HT-29, SRB assay, 48 hours exposure
[23] = read-out: GI50 A-549, SRB assay, 48 hours exposure
[24] = read-out: LC50 A-549, SRB assay, 48 hours exposure

## CS(=O)(=O)c1nccc(-c2c3c(OCc4ccccc4)ccnc3n3c(N)nccc23)n1 [Compound 99]
[1]
  CC50 at 48 h: 22.4 µM
[2]; [16]
  GI50: 8.2 µM
[2]; SRB assay, 48 hours exposure
  TGI H-MEC-1: 2.24E−05
[3]; [17]
  GI50: 22.4 µM
[3]; [18]
  CC50: 22.4 µM
[3]; SRB assay, 48 hours exposure
  TGI HT-29: 2.24E−05
[4]; [19]
  GI50: 22.4 µM
[4]; [20]
  CC50: 22.4 µM
[4]; SRB assay, 48 hours exposure
  TGI A-549: 2.24E−05

## COc1nccc(-c2c3c(OCc4ccccc4)ccnc3n3c(N)nccc23)n1 [Compound 102]
[1]
  CC50 at 48 h: 19.7 µM
[2]; [16]
  GI50: 6 µM
[2]; SRB assay, 48 hours exposure
  TGI H-MEC-1: 1.09E−05
[3]; [17]
  GI50: 25.1 µM
[3]; [18]
  CC50: 25.1 µM
[3]; SRB assay, 48 hours exposure
  TGI HT-29: 2.51E−05
[4]; [19]
  GI50: 25.1 µM
[4]; [20]
  CC50: 25.1 µM
[4]; SRB assay, 48 hours exposure
  TGI A-549: 2.51E−05

## COc1ccc(CNc2ccnc3c2c(-c2ccnc(SC)n2)c2ccnc(NCc4ccc(OC)cc4)n23)cc1 [Compound 85]
[1]
  CC50 at 48 h: 17.7 µM
[2]; [16]
  GI50: 6.19 µM
[2]; SRB assay, 48 hours exposure
  TGI H-MEC-1: 1.77E−05
[3]; [17]
  GI50: 12.2 µM
[3]; [18]
  CC50: 17.7 µM
[3]; SRB assay, 48 hours exposure
  TGI HT-29: 1.77E−05
[4]; [19]
  GI50: 6.58 µM
[4]; [20]
  CC50: 17.7 µM
[4]; SRB assay, 48 hours exposure
  TGI A-549: 1.77E−05

## CSc1nccc(-c2c3c(N)ccnc3n3c(N)nccc23)n1 [Compound 92]
[1]
  CC50 at 48 h: 30.9 µM
[2]; [16]
  GI50: 0.782 µM
[2]; SRB assay, 48 hours exposure
  TGI H-MEC-1: 3.09E−06
[3]; [17]
  GI50: 2.04 µM
[3]; [18]
  CC50: 30.9 µM
[3]; SRB assay, 48 hours exposure
  TGI HT-29: 3.09E−05
[4]; [19]
  GI50: 1.76 µM
[4]; [20]
  CC50: 24.4 µM
[4]; SRB assay, 48 hours exposure
  TGI A-549: 6.03E−06

## Nc1nccc(-c2c3cc4ccccc4nc3n3c(N)nccc23)n1 [Compound 19a]
[5]
  TGI IGROV: 9.56E−06
  GI50: 1.85 µM
[2]; SRB assay, 48 hours exposure
  TGI H-MEC-1: 6.72E−07
  CC50: 3.82 µM
[2]; [21]
  GI50: 0.123 µM
[6]
  TGI LOVO: 2.74E−06
  GI50: 0.467 µM
  CC50: 11.1 µM
[3]; SRB assay, 48 hours exposure
  TGI HT-29: 3.05E−05
[3]; [22]
  GI50: 1.94 µM
[7]
  TGI K-562: 6.42E−06
  GI50: 1.78 µM
  CC50: 25 µM
[8]; SRB assay, 48 hours exposure
  TGI SKOV-3: 4.67E−06
  CC50: 21.8 µM
[8]; read-out: GI50 SKOV-3, SRB assay, 48 hours exposure
  GI50: 1.14 µM
[9]
  TGI MEL-28: 5.16E−06
  GI50: 1.46 µM
  CC50: 13.1 µM
[10]
  TGI SK-BR-3: 1.68E−06
  GI50: 0.477 µM
  CC50: 8.58 µM
[4]; SRB assay, 48 hours exposure
  TGI A-549: 7.64E−06
[4]; [23]
  GI50: 3.24 µM
[4]; [24]
  CC50: 18 µM
[11]
  TGI PANC-1: 1.41E−05
  GI50: 3.45 µM
[12]
  TGI IGROV-ET: 4.98E−06
  GI50: 1.41 µM
  CC50: 14.5 µM
[13]
  TGI LOVO-DOX: 7.51E−06
  GI50: 1.03 µM
[14]
  TGI DU-145: 7.94E−07
  GI50: 0.00305 µM
  CC50: 3.79 µM
[15]; SRB assay, 48 hours exposure
  TGI LN-caP: 2.18E−06
  GI50: 0.736 µM
[15]; read-out: LC50 LN-caP, SRB assay, 48 hours exposure
  CC50: 22.5 µM

## COc1nccc(-c2c3cccnc3n3c(N)nccc23)n1 [Compound 76]
[5]
  TGI IGROV: 1.77E−06
  GI50: 0.725 µM
[5]; read-out: LC50 IGROV
  CC50: 3.42 µM
[2]; SRB assay, 48 hours exposure
  TGI H-MEC-1: 2.27E−07
  CC50: 1.56 µM
[2]; [21]
  GI50: 0.0777 µM
[6]
  TGI LOVO: 6.81E−07
  GI50: 0.163 µM
  CC50: ≥ 34.2 µM
[3]; SRB assay, 48 hours exposure
  TGI HT-29: 3.42E−06
[3]; [22]
  GI50: 0.77 µM
[3]; read-out: LC50 HT-29, SRB assay, 48 hours exposure
  CC50: ≥ 34.2 µM
[7]
  TGI K-562: 2.28E−06
  GI50: 1.02 µM
  CC50: 5.92 µM
[8]; Homo sapiens, SK-OV-3, 48 h, read-out: GI50 SKOV-3, SRB assay, 48 hours exposure
  GI50: 1.22 µM
[8]; SRB assay, 48 hours exposure
  TGI SKOV-3: 3.42E−06
  CC50: 34.3 µM
[9]
  TGI MEL-28: 8.01E−07
  GI50: 0.359 µM
  CC50: 1.79 µM
[10]
  TGI SK-BR-3: 1.21E−06
  GI50: 0.541 µM
  CC50: 2.71 µM
[4]; SRB assay, 48 hours exposure
  TGI A-549: 1.49E−06
[4]; [23]
  GI50: 0.407 µM
[4]; [24]
  CC50: 7.7 µM
[11]
  TGI PANC-1: 2.15E−06
  GI50: 0.65 µM
[12]
  TGI IGROV-ET: 2.04E−06
  GI50: 0.649 µM
  CC50: ≥ 34.2 µM
[13]
  TGI LOVO-DOX: 3.42E−07
  GI50: 0.773 µM
[13]; read-out: LC50 LOVO-DOX
  CC50: ≥ 34.2 µM
[14]
  TGI DU-145: 1.42E−06
  GI50: 0.542 µM
  CC50: 3.42 µM
[15]; Homo sapiens, LNCaP, 48 h, read-out: LC50 LN-caP, SRB assay, 48 hours exposure
  CC50: 3.08 µM
[15]; SRB assay, 48 hours exposure
  TGI LN-caP: 4.55E−07
  GI50: 0.0729 µM
